{"source": "PubChem BioAssay AID1963833", "about": "(Molecular Pharmacology Branch, DTP, NCI, 2024);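 also: spheroids exposed to compounds for seven days before readout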;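 as to viability, T/C: 100% = DMSO vehicle control viability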", "system": "883617-216-R-J1-PDC complex spheroid viability", "test": "Anticancer human tumor 883617-216-R-J1-PDC patient-derived bladder carcinoma cell line growth inhibition [POLQ]", "conditions": "for IC50: curve of first compound; for viability, T/C: stronger effect = lower value", "outline": "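Patient-derived tumour cells were co-cultured with HUVEC and mesenchymal stem cells as multicellular spheroids at 37 °C. They were treated with POLQ inhibitors (novobiocin, ART-558, RP6685) alone or combined with other agents. Top concentrations were at or near clinical Cmax (otherwise 10 microM; SN-38 at 1 microM), decreasing in half-log steps.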"}
{"smiles": "COc1cccc2c1C(=O)c1c(O)c3c(c(O)c1C2=O)CC(O)(C(=O)CO)CC3OC1CC(N)C(O)C(C)O1", "note": "(configuration not stated) + Nc1ccc(C#CCN(C(=O)Cc2ncc(C(F)(F)F)cc2C(F)(F)F)c2ccc(F)cc2)nn1", "values": [{"measurement": "IC50", "setting": "second compound 0.0316 µM", "result": 440, "unit": "nM"}, {"measurement": "IC50", "setting": "second compound 0.1 µM", "result": 382, "unit": "nM"}, {"measurement": "IC50", "setting": "second compound 0.316 µM", "result": 341, "unit": "nM"}, {"measurement": "IC50", "setting": "second compound 1 µM", "result": 398, "unit": "nM"}, {"measurement": "IC50", "setting": "second compound 3.16 µM", "result": 371, "unit": "nM"}, {"measurement": "IC50", "setting": "second compound 10 µM", "result": 419, "unit": "nM"}, {"measurement": "viability, T/C", "setting": "second compound 0.0316 µM, first compound 0.0316 µM", "result": 76.5, "unit": "%"}, {"measurement": "viability, T/C", "setting": "second compound 0.0316 µM, first compound 0.1 µM", "result": 67.2, "unit": "%"}, {"measurement": "viability, T/C", "setting": "second compound 0.0316 µM, first compound 0.316 µM", "result": 62.8, "unit": "%"}, {"measurement": "viability, T/C", "setting": "second compound 0.0316 µM, first compound 1 µM", "result": 19.8, "unit": "%"}, {"measurement": "viability, T/C", "setting": "second compound 0.0316 µM, first compound 3.16 µM", "result": 0.23, "unit": "%"}, {"measurement": "viability, T/C", "setting": "second compound 0.0316 µM, first compound 10 µM", "result": 0.18, "unit": "%"}, {"measurement": "viability, T/C", "setting": "second compound 0.1 µM, first compound 0.0316 µM", "result": 71.3, "unit": "%"}, {"measurement": "viability, T/C", "setting": "second compound 0.1 µM, first compound 0.1 µM", "result": 74.7, "unit": "%"}, {"measurement": "viability, T/C", "setting": "second compound 0.1 µM, first compound 0.316 µM", "result": 55.2, "unit": "%"}, {"measurement": "viability, T/C", "setting": "second compound 0.1 µM, first compound 1 µM", "result": 18.8, "unit": "%"}, {"measurement": "viability, T/C", "setting": "second compound 0.1 µM, first compound 3.16 µM", "result": 0.24, "unit": "%"}, {"measurement": "viability, T/C", "setting": "second compound 0.1 µM, first compound 10 µM", "result": 0.17, "unit": "%"}, {"measurement": "viability, T/C", "setting": "second compound 0.316 µM, first compound 0.0316 µM", "result": 79.3, "unit": "%"}, {"measurement": "viability, T/C", "setting": "second compound 0.316 µM, first compound 0.1 µM", "result": 72.2, "unit": "%"}, {"measurement": "viability, T/C", "setting": "second compound 0.316 µM, first compound 0.316 µM", "result": 52.9, "unit": "%"}, {"measurement": "viability, T/C", "setting": "second compound 0.316 µM, first compound 1 µM", "result": 16.7, "unit": "%"}, {"measurement": "viability, T/C", "setting": "second compound 0.316 µM, first compound 3.16 µM", "result": 0.21, "unit": "%"}, {"measurement": "viability, T/C", "setting": "second compound 0.316 µM, first compound 10 µM", "result": 0.71, "unit": "%"}, {"measurement": "viability, T/C", "setting": "second compound 1 µM, first compound 0.0316 µM", "result": 77.3, "unit": "%"}, {"measurement": "viability, T/C", "setting": "second compound 1 µM, first compound 0.1 µM", "result": 64.2, "unit": "%"}, {"measurement": "viability, T/C", "setting": "second compound 1 µM, first compound 0.316 µM", "result": 59.7, "unit": "%"}, {"measurement": "viability, T/C", "setting": "second compound 1 µM, first compound 1 µM", "result": 15.4, "unit": "%"}, {"measurement": "viability, T/C", "setting": "second compound 1 µM, first compound 3.16 µM", "result": 0.76, "unit": "%"}, {"measurement": "viability, T/C", "setting": "second compound 1 µM, first compound 10 µM", "result": 0.21, "unit": "%"}, {"measurement": "viability, T/C", "setting": "second compound 3.16 µM, first compound 0.0316 µM", "result": 78.5, "unit": "%"}, {"measurement": "viability, T/C", "setting": "second compound 3.16 µM, first compound 0.1 µM", "result": 68.6, "unit": "%"}, {"measurement": "viability, T/C", "setting": "second compound 3.16 µM, first compound 0.316 µM", "result": 56.6, "unit": "%"}, {"measurement": "viability, T/C", "setting": "second compound 3.16 µM, first compound 1 µM", "result": 15.3, "unit": "%"}, {"measurement": "viability, T/C", "setting": "second compound 3.16 µM, first compound 3.16 µM", "result": 0.47, "unit": "%"}, {"measurement": "viability, T/C", "setting": "second compound 3.16 µM, first compound 10 µM", "result": 0.94, "unit": "%"}, {"measurement": "viability, T/C", "setting": "second compound 10 µM, first compound 0.0316 µM", "result": 81.8, "unit": "%"}, {"measurement": "viability, T/C", "setting": "second compound 10 µM, first compound 0.1 µM", "result": 63, "unit": "%"}, {"measurement": "viability, T/C", "setting": "second compound 10 µM, first compound 0.316 µM", "result": 62.6, "unit": "%"}, {"measurement": "viability, T/C", "setting": "second compound 10 µM, first compound 1 µM", "result": 14.5, "unit": "%"}, {"measurement": "viability, T/C", "setting": "second compound 10 µM, first compound 3.16 µM", "result": 0.53, "unit": "%"}, {"measurement": "viability, T/C", "setting": "second compound 10 µM, first compound 10 µM", "result": 0.36, "unit": "%"}]}
